Experiments:
[1] = tested on: histone deacetylase (HDAC); assay: HDAC activity assay (HDAC Fluorimetric Assay/Drug Discovery Kit); assay type: biochemical, human; conditions: HDAC-containing HeLa cell nuclear fraction, 37°C for 1 hour, various concentrations; FIG. 2
Protocol: To verify whether the activity of histone deacetylase (HDAC) was inhibited by compounds composed of the synthesized SAHA derivatives and polyamides attached to each other, an HDAC Fluorimetric Assay/Drug Discovery Kit (BIOMOL international) was used in the experiment. Although details followed the instructions of the kit manufacturer, an HDAC-containing HeLa cell (human uterine cervical cancer cell line) nuclear fraction was added to an acetylation substrate and incubated at 37° C. for 1 hour in the presence of various concentrations of the synthesized compounds or trichostatin A (hereinafter referred to as TSA) used as a positive control, followed by addition of the developer included in the kit to stop the HDAC-catalyzed reaction. Then, the samples were transferred to a 96-well assay plate and measured with ARVO EX (Perkin Elmer) for emission at 460 nm from the reaction product upon excitation at 360 nm.

[2] = tested on: SW480 (human large bowel cancer cell line); assay: Cell proliferation assay (WST-8) on SW480 cells; assay type: cell-based; conditions: SW480, 72 hours, FIG. 4
Protocol: Next, the synthesized compounds were verified by WST-8 assay for their ability to suppress cancer cell proliferation.
Cell lines of HeLa (human uterine cervical cancer cell line), LOVO, RKO and SW480 (each of which was a human large bowel cancer cell line) were each cultured at 37° C. under 5% carbon dioxide conditions using Dulbecco's modified Eagle's medium (DMEM, Nacalai Tesque, Inc., Japan) supplemented with 10% fetal bovine serum (FBS: JRH bioscience, USA), antibiotics (50 U/ml penicillin and 50 μg/ml streptomycin) and 1 mM sodium pyruvate. […]
Each cell line seeded at 3×10^3 cells/well in a MICROTEST tissue culture plate (96 well, FALCON) was cultured at 37° C. under 5% carbon dioxide conditions for 24 hours, and then cultured in the presence of various concentrations of PI polyamide for an additional 72 hours. After completion of the culture, 10 μl of viable cell counting reagent SF (Nacalai Tesque, Inc., Japan) was added to each well and the absorbance at 450 nm was measured by ARVO EX (PerkinElmer). During the period from reagent addition until assay, incubation was continued at 37° C. in the presence of 5% CO2 until the absorbance reached about 1.2 to 2.0 in the control sample where only 50% DMSO was added to the cells.

p16 protein expression = assay: Western blotting of p16 protein in HeLa cells; assay type: cell-based, human; conditions: 48 hours, various concentrations, α-tubulin internal standard, FIG. 7
Protocol: After being cultured for 48 hours in the presence of various concentrations of polyamide, HeLa cells were harvested and lysed again in an extraction buffer containing 20 mM Tris-HCl (pH 7.5), 150 mM NaCl, 1 mM EDTA, 1% Nonidet P-40 and Complete Protease Inhibitor Cocktail Tablets (Roche), and then centrifuged at 13,500×g at 4° C. for 15 minutes. The resulting supernatants were supplemented with a sample buffer solution (2ME+, ×4) (Wako Pure Chemical Industries, Ltd., Japan) to give samples. These samples were developed on a 15% polyacrylamide gel, electrically transferred to a polyvinylidene difluoride membrane (Millipore Corporation, USA), and then blocked with 5% skimmed milk for the purpose of preventing non-specific binding. The primary antibodies used for target protein detection were purified anti-human p16INK4 monoclonal antibody (BD bioscience) for p16 and α-tubulin (TU-02) (SANTA CRUZ) for α-tubulin used as an internal standard. […] After antibody labeling, the membrane was developed with Immobilon western (MILLIPORE) and then detected by Las-4000 mini (Fuji Photo Film Co., Ltd., Japan). The area and intensity of each band were determined by Multigauge (Fuji Photo Film Co., Ltd., Japan) and quantified in comparison with a 50% DMSO-treated control, which was set to 100%.

## CN(C)CCCNC(=O)CCNC(=O)c1cc(NC(=O)c2nc(NC(=O)c3nc(NC(=O)CCNC(=O)c4cc(NC(=O)c5nc(NC(=O)CCCNC(=O)c6cc(NC(=O)c7nc(NC(=O)CCNC(=O)c8cc(NC(=O)c9cc(NC(=O)c%10nc(NC(=O)CCNC(=O)CCNC(=O)c%11ccc(NC(=O)CCCCCCC(=O)NO)cc%11)cn%10C)cn9C)cn8C)cn7C)cn6C)cn5C)cn4C)cn3C)cn2C)cn1C [SAHA+p16 PIP, SAHA-ββImPyPyβImPyγImPyβImImPyβDp]
[1]
  anti-HDAC activity: confirmed to have anti-HDAC activity
[2]
  inhibition of SW480 cell proliferation: inhibit proliferation
p16 protein expression
  expression of p16 at the protein level: enhanced the expression

Reference: patent US20110160399A1, “HISTONE MODIFICATION INHIBITOR SPECIFIC TO TARGET GENE” (NIHON UNIVERSITY, priority 2008, published 2011)
